Patent US20160317430A1, “COSMETIC USE OF AN EXTRACT OF GYMNEMA SYLVESTRE” (LABORATOIRES CLARINS, priority 2013, published 2016)

Test system: cytochrome C oxidase, complex IV of the respiratory chain
Test: Cytochrome C oxidase activity in human keratinocytes in culture, with or without H2O2 oxidative stress
Format: cell-based
Conditions: H2O2 alone (positive control), 24 h
Method: The keratinocyte cultures were established using skin from human foreskins collected at circumcisions and were amplified in KGM2 medium (Keratinocyte Growth Medium, KGN2, clonetics) supplemented with insulin, EGF and pituitary extract. The tests were conducted on keratinocytes at the 3rd passage. The cells were inoculated in multi-well dishes at a rate of 1×10^6 cells. After 24 hours of incubation at 37° C. (5% CO2), the cells in the exponential growth phase were treated with Gymnema sylvestre extract at the concentrations of 0.125% and 0.25% alone or in the presence of H2O2.
After 24 hours of treatment, the cells were sampled and then washed and resuspended in cold PBS. The evaluation of the cytochrome C oxidase activity was then carried out using the analysis kit (Cytochrome C Oxidase Assay Kit—Sigma) according to the protocol specified.

Compound: OO [H2O2, hydrogen peroxide]
- % (cytochrome C oxidase activity vs negative control): −34%
- ATP mean (Table II, cytochrome C oxidase activity test): 0.87 nmol/10^7 cells
